Results on 2 molecules are retold here after patent publication US5354758A, “Benzomorphans useful as NMDA receptor antagonists” (priority 1992, dated 1994).

Data set [1] has as its system mice. Kind of data set: Lethality of NMDA in mice. Format: in vivo, Swiss-Webster mouse. The note with it: NMDA at 200 mg/kg. The protocol: According to the method described by Ferkany et al. (1988), the test compounds were administered ip to four male Swiss-Webster mice (26-34 g) each, following 30 minutes later, 200 mg/kg of NMDA was administered to the mice each. […] Those compounds that protected three or more of the mice at any of the doses were evaluated further by determining the ED50 values using three or more doses with the eight mice per dose. The ED50 was estimated by the method of Litchfield and Wilcoxin (1949). Water-soluble compounds were dissolved in distilled water and administered in a volume of 10 ml/kg. Water-insoluble compounds were suspended in an aqueous solution of 0.5% methyl cellulose and administered in a volume of 20 ml/kg.

Data set [2] concerns the target T1, σ-site of opioid receptor (Cavia porcellus, UniProt Q60492).
T1 construct: Hartley guinea pigs were decapitated, and the brains were removed and homogenized; from tissue; host or cells: Hartley guinea pig brain homogenate (washed membranes)
Kind of data set: In vitro binding, inhibition of [^3 H]PPP binding to guinea pig brain homogenate. Details: species or system Hartley guinea pig. The protocol:
As described below, the compounds of the invention were tested for their ability to inhibit binding of radiolabeled versions of these known ligands.
Hartley guinea pigs were decapitated, and the brains were removed and homogenized in 20 volumes of 50 mM Tris-HCl using a Polytron homogenizer. The homogenate was centrifuged at 27,000×G for 15 minutes, and the pellet was resuspended in 50 mM Tris-HCl. The centrifugation procedure was repeated twice. The pellet was diluted to approximately 8 mg wet tissue/assay. Various concentrations of the test compounds (100 μL) and [^3 H]PPP (100 μL, final concentration 0.6 nM) were incubated with 1.8 mL of the tissue homogenate at 25° C. for 1 hour. Unlabeled PPP (final concentration 10 μM) was added to some tubes to determine nonspecific binding. The reaction was stopped by filtration through GF/B filters using a Brandel Cell Harvester. After washing twice with […] of ice cold Tris-HCl, the filters were suspended in 5 mL of scintillation fluid, and the radioactivity was counted after standing at room temperature overnight.
Table 1 summarizes the results of the in vitro binding studies using these three radioligands at the NMDA receptor site, μ-site and σ-site of opioid receptor, respectively.

Data set [3] concerns σ-site of opioid receptor. The note with it: shown previously; cited from earlier work.

T1 sequence (Q60492 whole entry): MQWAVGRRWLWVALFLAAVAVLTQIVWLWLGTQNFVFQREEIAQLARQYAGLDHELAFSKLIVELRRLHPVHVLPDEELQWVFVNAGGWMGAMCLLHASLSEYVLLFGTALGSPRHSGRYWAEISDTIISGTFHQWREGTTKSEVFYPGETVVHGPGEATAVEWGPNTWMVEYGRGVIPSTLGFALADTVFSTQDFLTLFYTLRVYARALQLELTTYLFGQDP

For the molecule `CN[C@H](CC(=O)O)C(=O)O` [NMDA, N-methyl-D-aspartate], the mice died result in data set [1] was “approximately 90%”. For `CCCN1CCCC(c2cccc(O)c2)C1` (stereo not drawn) [PPP, reference compound], in data set [2], the Kd was found to be 20 nM. Further, the “high-affinity ligand at the σ site of the opioid receptor” value in data set [3] was “high-affinity”.

Broadly, the Kd is the equilibrium constant for the complex coming apart. A low value points to higher affinity.
